Source: paper PMC7562955 (Nature Communications, 2020)

Target: T1, TLR7 (Homo sapiens, UniProt Q9NYK1)
T1 sequence (Q9NYK1 27-1049): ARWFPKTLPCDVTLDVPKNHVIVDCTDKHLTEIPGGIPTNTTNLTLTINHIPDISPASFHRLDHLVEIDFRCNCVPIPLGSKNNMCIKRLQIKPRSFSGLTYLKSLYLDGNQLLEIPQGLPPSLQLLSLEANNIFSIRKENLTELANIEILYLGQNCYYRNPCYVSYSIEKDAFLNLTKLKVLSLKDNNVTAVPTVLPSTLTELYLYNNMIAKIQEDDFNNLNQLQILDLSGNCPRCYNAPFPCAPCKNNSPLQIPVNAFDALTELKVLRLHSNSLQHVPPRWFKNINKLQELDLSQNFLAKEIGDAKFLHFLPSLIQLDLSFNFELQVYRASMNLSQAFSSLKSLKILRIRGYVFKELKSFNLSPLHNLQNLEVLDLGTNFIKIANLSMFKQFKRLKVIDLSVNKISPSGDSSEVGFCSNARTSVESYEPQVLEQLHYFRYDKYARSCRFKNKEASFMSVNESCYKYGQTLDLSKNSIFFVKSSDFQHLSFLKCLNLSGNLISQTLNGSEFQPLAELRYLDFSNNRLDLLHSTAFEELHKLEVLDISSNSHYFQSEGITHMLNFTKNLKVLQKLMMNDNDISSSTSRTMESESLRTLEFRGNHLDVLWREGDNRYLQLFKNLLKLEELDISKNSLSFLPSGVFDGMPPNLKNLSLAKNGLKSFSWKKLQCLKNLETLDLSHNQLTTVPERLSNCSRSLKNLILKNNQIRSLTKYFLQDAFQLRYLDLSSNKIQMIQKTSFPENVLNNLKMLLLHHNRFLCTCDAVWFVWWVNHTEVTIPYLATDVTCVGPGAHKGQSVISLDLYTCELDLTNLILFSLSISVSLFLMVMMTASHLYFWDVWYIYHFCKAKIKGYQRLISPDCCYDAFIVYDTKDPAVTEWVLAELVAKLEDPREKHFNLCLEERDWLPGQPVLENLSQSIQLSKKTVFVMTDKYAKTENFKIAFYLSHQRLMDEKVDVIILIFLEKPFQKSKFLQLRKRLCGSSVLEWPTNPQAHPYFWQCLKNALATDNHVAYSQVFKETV
Assay: Dose-response relationship between antagonist and R848, human TLR7 reporter gene assay
Assay type: cell-based
Design: host or cells: HEK293 (TLR7/NF-κB/SEAPorter)
Procedure: Compounds were dissolved in dimethyl sulfoxide. Human TLR7 reporter cell line (Novus Biological) were seeded in 96-well microtiter plate (AGC techno glass) at 5 × 10^4 cells/well in DMEM (GIBCO) with 10% fetal bovine serum (GIBCO), and 10 μg ml^−1 Blastcidin S HCl (GIBCO) and incubated at 37 °C in 5% CO2. The plates were incubated over-night and then addition with various concentrations of compound. After 30 min, R848 (human TLR7/8 ligand) that was diluted with the medium was added, wherein final concentration was adjusted to 0.01, 0.03, 0.1, 0.3, 1, 3, 10, 30, 100, 300 and 1000 μM. The plates were then incubated an additional 20 ± 1 h at 37 °C in 5% CO2, and then the SEAP activity was measured as activation of human TLR7. The SEAP activity was evaluated as follows: pNPP (Invitrogen) was added to the incubated sample (50 μl/well); after 15 min, 4 mol l^−1 sodium hydroxide solution (nacalai tesque) was added thereto (50 μl/well) to quench the reaction; and the absorbance of each sample was measured at 405 nm with microplate reader SpectraMax M4 (Molecular Devices).

`CCOc1nc(N)c2nc(-c3cncc(F)c3)n(Cc3ccc(CN4C[C@@H]5C[C@H]4CN5C)cc3)c2n1` [Cpd-6] was tested, and the TLR7 reporter signal (Cpd-6 1 μM, log10[R848 (µM)] 2) was 84.5912, the TLR7 reporter signal (Cpd-6 1 μM, log10[R848 (µM)] 2.47712) was 96.6131 and the TLR7 reporter signal (Cpd-6 1 μM, log10[R848 (µM)] 3) was 99.4242. The TLR7 reporter signal (Cpd-6 1 μM, log10[R848 (µM)] -0.522879) was -0.03548, the TLR7 reporter signal (Cpd-6 1 μM, log10[R848 (µM)] -1) was 0.7835 and the TLR7 reporter signal (Cpd-6 1 μM, log10[R848 (µM)] -1.52288) was 0.4073. The TLR7 reporter signal (Cpd-6 1 μM, log10[R848 (µM)] -2) was -0.4287, the TLR7 reporter signal (Cpd-6 3 μM, log10[R848 (µM)] 0) was -0.1671 and the TLR7 reporter signal (Cpd-6 3 μM, log10[R848 (µM)] 0.477121) was -0.3319. For the same compound, the TLR7 reporter signal (Cpd-6 3 μM, log10[R848 (µM)] 1) was 1.145, the TLR7 reporter signal (Cpd-6 3 μM, log10[R848 (µM)] 1.47712) was 10.9886 and the TLR7 reporter signal (Cpd-6 3 μM, log10[R848 (µM)] 2) was 45.7638. For the same compound, the TLR7 reporter signal (Cpd-6 3 μM, log10[R848 (µM)] 2.47712) was 76.6561, the TLR7 reporter signal (Cpd-6 3 μM, log10[R848 (µM)] 3) was 93.6623 and the TLR7 reporter signal (Cpd-6 3 μM, log10[R848 (µM)] -0.522879) was -0.0924. It also gave a TLR7 reporter signal (Cpd-6 3 μM, log10[R848 (µM)] -1) of 0.3881, a TLR7 reporter signal (Cpd-6 3 μM, log10[R848 (µM)] -1.52288) of 0.1811 and a TLR7 reporter signal (Cpd-6 3 μM, log10[R848 (µM)] -2) of -0.3984. For the same compound, the TLR7 reporter signal (Cpd-6 10 μM, log10[R848 (µM)] 0) was -0.3585, the TLR7 reporter signal (Cpd-6 10 μM, log10[R848 (µM)] 0.477121) was 0.00887 and the TLR7 reporter signal (Cpd-6 10 μM, log10[R848 (µM)] 1) was -0.3311. For the same compound, the TLR7 reporter signal (Cpd-6 10 μM, log10[R848 (µM)] 1.47712) was 1.483, the TLR7 reporter signal (Cpd-6 10 μM, log10[R848 (µM)] 2) was 7.633 and the TLR7 reporter signal (Cpd-6 10 μM, log10[R848 (µM)] 2.47712) was 30.5109. The TLR7 reporter signal (Cpd-6 10 μM, log10[R848 (µM)] 3) was 70.7738, the TLR7 reporter signal (Cpd-6 10 μM, log10[R848 (µM)] -0.522879) was 0.08501 and the TLR7 reporter signal (Cpd-6 10 μM, log10[R848 (µM)] -1) was 0.6054. It also gave a TLR7 reporter signal (Cpd-6 10 μM, log10[R848 (µM)] -1.52288) of 0.5159, a TLR7 reporter signal (Cpd-6 10 μM, log10[R848 (µM)] -2) of -0.6941 and a TLR7 reporter signal (Cpd-6 30 μM, log10[R848 (µM)] 0) of -0.8205. For the same compound, the TLR7 reporter signal (Cpd-6 30 μM, log10[R848 (µM)] 0.477121) was -0.1671, the TLR7 reporter signal (Cpd-6 30 μM, log10[R848 (µM)] 1) was -0.3932 and the TLR7 reporter signal (Cpd-6 30 μM, log10[R848 (µM)] 1.47712) was 0.7037. For the same compound, the TLR7 reporter signal (Cpd-6 30 μM, log10[R848 (µM)] 2) was 0.5559, the TLR7 reporter signal (Cpd-6 30 μM, log10[R848 (µM)] 2.47712) was 4.178 and the TLR7 reporter signal (Cpd-6 30 μM, log10[R848 (µM)] 3) was 28.3207. It also gave a TLR7 reporter signal (Cpd-6 30 μM, log10[R848 (µM)] -0.522879) of -0.2084, a TLR7 reporter signal (Cpd-6 30 μM, log10[R848 (µM)] -1) of 0.05618 and a TLR7 reporter signal (Cpd-6 30 μM, log10[R848 (µM)] -1.52288) of 0.1597. For the same compound, the TLR7 reporter signal (Cpd-6 30 μM, log10[R848 (µM)] -2) was -0.9107, the TLR7 reporter signal (Cpd-6 100 μM, log10[R848 (µM)] 0) was -0.4154 and the TLR7 reporter signal (Cpd-6 100 μM, log10[R848 (µM)] 0.477121) was -0.3459. The TLR7 reporter signal (Cpd-6 100 μM, log10[R848 (µM)] 1) was -0.6712, the TLR7 reporter signal (Cpd-6 100 μM, log10[R848 (µM)] 1.47712) was 0.8663 and the TLR7 reporter signal (Cpd-6 100 μM, log10[R848 (µM)] 2) was 0.5381. The TLR7 reporter signal (Cpd-6 100 μM, log10[R848 (µM)] 2.47712) was 4.485, the TLR7 reporter signal (Cpd-6 100 μM, log10[R848 (µM)] 3) was 25.5163 and the TLR7 reporter signal (Cpd-6 100 μM, log10[R848 (µM)] -0.522879) was -0.01478. For the same compound, the TLR7 reporter signal (Cpd-6 100 μM, log10[R848 (µM)] -1) was 0.612, the TLR7 reporter signal (Cpd-6 100 μM, log10[R848 (µM)] -1.52288) was 1.063 and the TLR7 reporter signal (Cpd-6 100 μM, log10[R848 (µM)] -2) was -0.5529.
